Data as given in patent US12145923B2, “Tetrahydroisoquinoline compound, preparation method therefor, pharmaceutical composition containing same, and use thereof” (SHANGHAI INSTITUTE OF MATERIA MEDICA, CHINESE ACADEMY OF …, priority 2018, dated 2024).
Read-outs that look alike come from different tables or passages of the source.

Experiments:
[1] = biological target: Human PDE4D catalytic domain (Homo sapiens (Human), UniProt Q08499); assay: Scintillation Proximity Assay (SPA), inhibition of PDE4D catalytic domain activity; type: biochemical
Sequence of Human PDE4D catalytic domain (Q08499 386-715): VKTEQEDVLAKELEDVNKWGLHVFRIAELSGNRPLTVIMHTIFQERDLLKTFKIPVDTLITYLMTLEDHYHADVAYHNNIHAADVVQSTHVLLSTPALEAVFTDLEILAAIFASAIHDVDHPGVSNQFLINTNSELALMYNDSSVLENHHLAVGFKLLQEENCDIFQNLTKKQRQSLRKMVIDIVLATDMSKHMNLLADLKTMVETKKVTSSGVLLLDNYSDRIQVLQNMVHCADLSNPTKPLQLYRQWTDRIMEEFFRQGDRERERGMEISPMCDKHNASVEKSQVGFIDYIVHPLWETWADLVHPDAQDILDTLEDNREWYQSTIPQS

TNF-α secretion in PBMC = assay: Inhibition of LPS-stimulated TNF-α secretion in PBMC (ELISA); type: cell-based; conditions: Homo sapiens, TNF-α secretion in PBMC
Source text: According to the difference in cell density in human blood, PBMC (peripheral blood mononuclear cell, PBMC) was directly separated and purified by gradient centrifugation using lymphocyte separation fluid. The cell type was mononuclear cells in blood, mainly including lymphocytes (T/B), monocytes, macrophages, dendritic cells and other minor cell types, of which lymphocytes account for a large part, which can directly in vitro simulate the blood immune environment.
PBMC cells isolated from human blood were implanted into 96-well plates at 2*10^5/ml; compounds in gradients were added, with at least three replicates for each gradient; After the PBMCs were incubated at 37° C., 5% CO2 for 1 hour, LPS was added (the final concentration was 10 ug/ml) to stimulate PBMC to express TNF-α, and incubated for another 18-20 h at 37° C., 5% C02. The 96-well plate was collected. The background control with no stimulant and stimulation control wells were also set, with a total volume of 200 μl. The culture supernatant was collected by centrifugation, and the expression level of TNF-α in the culture supernatant was detected by ELISA.

[2] = Cytotoxicity on RAW 264.7 cells (CCK-8 method); type: cell-based, mouse; conditions: mouse, RAW 264.7 cells; drug concentration required to cause median cytotoxicity, RAW 264.7
Experimental: (§1) Mouse RAW 264.7 cells were purchased from American Type Culture Collection (Manassas, VA, USA), and cultivated in DMEM culture medium (Hyclone, South Logan, UT, USA) containing 10% fetal bovine serum (Hyclone, South Logan, UT, USA). Cells were collected and counted before use, and inoculated in a 96-well plate (Corning, NY, USA) at 1×10^5/well. […] 20 μl of CCK-8 solution (Dojindo, Kumamoto, Japan) was added at 30 min before the end of the culture. After the cultivation was ended, the absorbance OD value was measured at 450 nm (reference 650 nm) on amicroplate reader (Molecular Devices, Sunnyvale, CA, USA). The toxicity of the compound on RAW 264.7 cells was calculated by dividing the OD value of the test sample by the OD value of the cell control well, which was labeled as the cell survival rate M %.

RAW 264.7 cells = assay: Cytotoxicity on RAW 264.7 cells (CCK-8 method); type: cell-based, mouse
Experimental: as §1

[3] = system: tumor necrosis factor-α secretion in RAW 264.7 cells; assay: Inhibition of LPS-stimulated tumor necrosis factor-α secretion in RAW 264.7 cells (ELISA); type: cell-based, mouse
Experimental: After the activation by bacterial lipopolysaccharide (LPS), various inflammatory mediators such as tumor necrosis factor-α will be released; Phosphodiesterase PDE4 is also expressed in macrophages, and the inhibitory activity of the compound on phosphodiesterase PDE4 can be reflected by detecting the secretion of tumor necrosis factor-α.
Under the stimulation of 1 μg/ml LPS (L5886, Sigma, St. Louis, MO, USA), the cells were cultured in a 37° C., 5% CO2 incubator for 4 h. The background control with no stimulant and stimulation control wells were also set, with a total volume of 200 μl. The culture supernatant was collected by centrifugation, and the secretion level of tumor necrosis factor-α in the culture supernatant was detected by enzyme-linked immunosorbent assay. The tumor necrosis factor-α detection kit was purchased from BD Pharmingen (San Diego, CA, USA).

[4] = system: acute inflammation model of mouse back air sac; assay: Acute inflammation model of mouse back air sac (carrageenan); type: in vivo; conditions: oral gavage 5 mg/kg
Experimental: On the first day of the experiment, mice were subcutaneously injected with 3 ml of air on the back, and subcutaneously injected with 1.5 ml of air on the back on day 3, and subcutaneously injected with 1 ml of 2% carrageenan (Sigma-Aldrich, St. Louis, MO, USA) on the back on day 6 for sensitization. 4 hours after sensitization, secretion in the air sac was lavaged with phosphate buffer solution. The lavage fluid was used for white blood cell count and inflammatory factor detection. […] Tumor necrosis factor-α and interleukin-6 detection kits were purchased from BD Pharmingen (San Diego, CA, USA).

Rat pharmacokinetic test = type: in vivo
Experimental: Six male healthy rats weighing 150-200 g were randomly divided into 2 groups (n=3). Compounds 14, 16, 17, 18, 22 and 29 of the present invention were administered by gavage and intravenous injection, respectively, at a administration volume of 10 mL/kg. The drug was formulated with DMSO/Tween 80/saline solution (5:5:90, v/v/v). The rats were fasted for 12 h before testing, water ad lib, and uniformly feeded 2 h after administration.
gavage administration: 0.25, 0.5, 1.0, 2.0, 4.0, 6.0, 8.0 and 24 h after administration:
intravenous administration: 5 min, 0.25, 0.5, 1.0, 2.0, 4.0, 6.0, 8.0 and 24 h after administration;
0.3 mL of venous blood was collected at the above time points via the rat eye vein venous plexus, placed in heparinized test tube, centrifuged at 11000 rpm for 5 min. Plasma was separated and frozed in a −20° C. refrigerator.
The concentration of compounds in rat plasma was determined by LC/MS/MS. The pharmacokinetic parameters after administration were calculated by a non-compartmental model of DAS 3.0 software.

[5] = Beagle dog pharmacokinetic test; type: in vivo
Experimental: Six male healthy beagle dogs weighing 9-11 kg were randomly divided into 2 groups (n=3). The compound (S)-C8 of the present invention was administered by gavage administration and intravenous injection, respectively, and the administration volume was 5 mL/kg and 1 mL/kg, respectively. The gavage administration was formulated with 0.5% CMC-Na+0.25% Tween 80, and intravenous administration was formulated with 5% DMSO/40% PEG400/55% saline.
• gavage administration: 0.25, 0.5, 1.0, 2.0, 4.0, 6.0, 8.0 and 24 h after administration; • intravenous administration: 5 min, 0.25, 0.5, 1.0, 2.0, 4.0, 6.0, 8.0 and 24 h after administration; • 1 ml of venous blood was taken at the above time points from the veins of the extremities, placed in an EDTA-2K anticoagulation tube, and centrifuged at 3500 rpm for 10 minutes. Plasma was separated, and frozen in a −20° C. refrigerator. 3. Sample Testing and Data Analysis
The concentration of compound (S)-C8 in Beagle dog plasma was determined by LC/MS/MS.
The pharmacokinetic parameters after administration were calculated by a non-compartmental model of Phoenix 1.3 software (Pharsight, USA).

[6] = male, plasma, intravenous injection, 10 mg/kg
[7] = male, plasma, po, gavage, 20 mg/kg
[8] = male, plasma, intravenous injection, 3 mg/kg
[9] = male, plasma, po, gavage, 10 mg/kg

## CCOc1cc2c(cc1OC)CCN(C=O)[C@H]2CCc1c[nH]c2ccc(OC)cc12 [(S)-C8, (S)-7-ethoxy-6-methoxy-1-(2-(5-methoxy-1H-indol-3-yl)ethyl)-3,4-dihydroisoquinoline-2(1H)-formaldehyde]
[1]; Compound concentration: 1 μM, read-out: PDE4D enzyme activity inhibition rate %
  inhibition at 1 µM: 95%
[1]; PDE4D, unit given as mM, read-out: IC50
  IC50: 0.08 µM
[1]; read-out: IC50 value of PDE4 inhibitory activity
  IC50: < 0.1 µM
TNF-α secretion in PBMC; 1 μM, read-out: Inhibition rate %
  inhibition at 1 µM: 79.7%
TNF-α secretion in PBMC; 10 μM, read-out: Inhibition rate %
  inhibition at 10 µM: 86.8%
TNF-α secretion in PBMC; read-out: IC50
  IC50: 0.026 µM
TNF-α secretion in PBMC; read-out: IC50 value
  IC50: 0.026 µM
[2]
  CC50 at 4 h: > 50 µM
RAW 264.7 cells; RAW 264.7, 0.5 μM
  Cell survival rate/%: 89.2%
RAW 264.7 cells; RAW 264.7, 5 μM
  Cell survival rate/%: 96.1%
RAW 264.7 cells; RAW 264.7, 50 μM
  Cell survival rate/%: 93.8%
[3]; Mus musculus, RAW264.7, 4 h, RAW 264.7, 0.5 μM, read-out: Tumor necrosis factor-α inhibition rate/%
  inhibition at 0.5 µM: -6%
[3]; Mus musculus, RAW264.7, 4 h, RAW 264.7, 5 μM, read-out: Tumor necrosis factor-α inhibition rate/%
  inhibition at 5 µM: 60.4%
[3]; Mus musculus, RAW264.7, 4 h, RAW 264.7, 50 μM, read-out: Tumor necrosis factor-α inhibition rate/%
  inhibition at 50 µM: 58.1%
[3]; Mus musculus, RAW264.7, RAW 264.7
  IC50: 1.9 µM
[3]; RAW 264.7
  inhibitory activity on tumor necrosis factor-α compared with the positive compound Apremilast: comparable or stronger
[4]; air sac lavage
  number of leukocyte infiltration: reduce
[4]
  secretion level of interleukin-6 in lavage: reduce
  secretion level of tumor necrosis factor-α in lavage: reduce
[4]; 24 h and 1 h before sensitization
  inflammatory response: significantly reduce
Rat pharmacokinetic test; gavage, 20 mg/kg
  AUC0-t: 491 ng·h/mL
  t1/2: 1.03 h
Rat pharmacokinetic test; intravenous injection, 10 mg/kg
  AUC0-t: 2640 ng·h/mL
Rat pharmacokinetic test; [6]
  AUC(0-inf): 2640 ng·h/mL
  MRT: 0.544 h
  half-life: 0.707 h
Rat pharmacokinetic test; male, plasma, intravenous injection, 10 mg/kg, read-out: Vss
  Vd: 2.1 L/kg
Rat pharmacokinetic test; male, plasma, iv, 10 mg/kg, intravenous injection, 10 mg/kg, read-out: AUC0-t
  AUC0-t: 2640 ng·h/mL
Rat pharmacokinetic test; male, plasma, oral, gavage 20 mg/kg vs intravenous 10 mg/kg, dosage standardized, read-out: F (absolute bioavailability)
  bioavailability: 9.3%
Rat pharmacokinetic test; male, plasma, po, 20 mg/kg, gavage, 20 mg/kg, read-out: AUC0-t
  AUC0-t: 508 ng·h/mL
Rat pharmacokinetic test; [7]
  AUC(0-inf): 508 ng·h/mL
  MRT: 2 h
  Tmax: 1.33 h
  half-life: 1.03 h
[5]; gavage, 10 mg/kg
  AUC0-t: 16601 ng·h/mL
  t1/2: 2.92 h
[5]; intravenous injection, 3 mg/kg
  AUC0-t: 9610 ng·h/mL
[5]; [8]
  AUC(0-inf): 9800 ng·h/mL
  MRT: 2.37 h
  half-life: 1.96 h
[5]; male, plasma, intravenous injection, 3 mg/kg, read-out: AUC0-t
  AUC0-t: 9610 ng·h/mL
[5]; male, plasma, intravenous injection, 3 mg/kg, read-out: Vss
  Vd: 0.96 L/kg
[5]; male, plasma, oral, gavage 10 mg/kg vs intravenous 3 mg/kg, dosage standardized, read-out: F (absolute bioavailability)
  bioavailability: 52.3%
[5]; [9]
  Cmax: 4680 ng/mL
  MRT: 3.61 h
  Tmax: 0.5 h
  half-life: 2.92 h
[5]; male, plasma, po, gavage, 10 mg/kg, read-out: AUC0-t
  AUC0-t: 16600 ng·h/mL
